Measurements: ChEMBL document CHEMBL4507264, “Data for DCP probe BAY-7598” (2021)

What was measured:
[1] = target: 1-phosphatidylinositol 3-phosphate 5-kinase (Homo sapiens) (UniProt Q9Y2I7); settings: Compound concentration 1000.0 nM
[2] = target: Phosphatidylinositol 4,5-bisphosphate 3-kinase catalytic subunit beta isoform (Homo sapiens) (UniProt P42338); settings: Compound concentration 1000.0 nM
[3] = target: Ribosomal protein S6 kinase alpha-6 (Homo sapiens) (UniProt Q9UK32); settings: Compound concentration 1000.0 nM
[4] = target: Leukocyte tyrosine kinase receptor (Homo sapiens) (UniProt P29376); settings: Compound concentration 1000.0 nM
[5] = target: Glutamate NMDA receptor (Rattus norvegicus) (UniProt P35439+Q00959+Q00960+Q00961+Q62645+Q8VHN2+Q9R1M7); settings: Compound concentration 10.0 uM
[6] = target: T1, GABA-A receptor; anion channel (Rattus norvegicus) (UniProt O09028+P15431+P18506+P18508+P19969+P20236+P23574+P23576+P28471+P28473+P30191+P62813+P63079+P63138+Q91ZM7+Q9ES14); assay: Inhibition of GABAA, Muscimol, Central at 10 µM in the Eurofins-Panlabs radioligand binding assay (Eurofins_assay_226500); type: protein-complex assay; settings: Compound concentration 10.0 uM
[7] = target: Prostaglandin E2 receptor EP4 subtype (Homo sapiens) (UniProt P35408); assay: Inhibition of Prostanoid EP4 at 10 µM in the Eurofins-Panlabs radioligand binding assay (Eurofins_assay_268420); design: ligand concentration 1 nM; settings: Compound concentration 10.0 uM
[8] = target: Epidermal growth factor receptor (Homo sapiens) (UniProt P00533); assay: Inhibition of Epidermal Growth Factor (EGF) at 10 µM in the Eurofins-Panlabs radioligand binding assay (Eurofins_assay_225510); settings: Compound concentration 10.0 uM
[9] = target: Histamine H1 receptor (Homo sapiens) (UniProt P35367); settings: Compound concentration 10.0 uM
[10] = target: Estrogen receptor (Homo sapiens) (UniProt P03372); settings: Compound concentration 10.0 uM
[11] = target: Platelet-activating factor receptor (Homo sapiens) (UniProt P25105); assay: Inhibition of Platelet Activating Factor (PAF) at 10 µM in the Eurofins-Panlabs radioligand binding assay (Eurofins_assay_265010); settings: Compound concentration 10.0 uM
[12] = species: Oryctolagus cuniculus; assay: Inhibition of Purinergic P2X at 10 µM in the Eurofins-Panlabs radioligand binding assay (Eurofins_assay_268700); type: protein assay; settings: Compound concentration 10.0 uM
[13] = target: L-type calcium channel, benzothiazepine site (Cav1.2 alpha-1C) (Homo sapiens, UniProt Q13936); assay: Inhibition of Calcium Channel L-Type, Benzothiazepine at 10 µM in the Eurofins-Panlabs radioligand binding assay (Eurofins_assay_214510); design: ligand concentration 2 nM, non-specific ligand with concentration 10 µM Diltiazem, incubation time 3h, incubation temperature 4 °C; settings: male, Wistar, rat, rat whole brain preparation, probe [3H] Diltiazem; compound concentration 10 uM; target entry is the homologue from another species
[14] = target: ATP-sensitive inward rectifier potassium channel 11 (Cricetulus griseus) (UniProt A0A3L7HHE1); assay: Inhibition of Potassium Channel [KATP] at 10 µM in the Eurofins-Panlabs radioligand binding assay (Eurofins_assay_265600); settings: Cricetinae; Compound concentration 10.0 uM
[15] = target: Neuropeptide Y receptor type 2 (Homo sapiens) (UniProt P49146); assay: Inhibition of Neuropeptide Y Y2 at 10 µM in the Eurofins-Panlabs radioligand binding assay (Eurofins_assay_257110); settings: Compound concentration 10.0 uM
[16] = species: Rattus norvegicus; settings: Compound concentration 10.0 uM
[17] = target: Neuropeptide Y receptor type 1 (Homo sapiens) (UniProt P25929); assay: Inhibition of Neuropeptide Y Y1 at 10 µM in the Eurofins-Panlabs radioligand binding assay (Eurofins_assay_257010); settings: Compound concentration 10.0 uM
[18] = species: Rattus norvegicus; assay: Inhibition of Imidazoline I2, Central at 10 µM in the Eurofins-Panlabs radioligand binding assay (Eurofins_assay_241000); design: ligand concentration 2 nM; settings: Compound concentration 10.0 uM
[19] = species: Mus musculus; assay: Inhibition of Interleukin IL-1 at 10 µM in the Eurofins-Panlabs radioligand binding assay (Eurofins_assay_243520); design: ligand concentration 0.1 nM; settings: Compound concentration 10.0 uM
[20] = target: T2, Muscarinic acetylcholine receptor M2 (Homo sapiens) (UniProt P08172); settings: Compound concentration 10.0 uM
T2 sequence (whole entry): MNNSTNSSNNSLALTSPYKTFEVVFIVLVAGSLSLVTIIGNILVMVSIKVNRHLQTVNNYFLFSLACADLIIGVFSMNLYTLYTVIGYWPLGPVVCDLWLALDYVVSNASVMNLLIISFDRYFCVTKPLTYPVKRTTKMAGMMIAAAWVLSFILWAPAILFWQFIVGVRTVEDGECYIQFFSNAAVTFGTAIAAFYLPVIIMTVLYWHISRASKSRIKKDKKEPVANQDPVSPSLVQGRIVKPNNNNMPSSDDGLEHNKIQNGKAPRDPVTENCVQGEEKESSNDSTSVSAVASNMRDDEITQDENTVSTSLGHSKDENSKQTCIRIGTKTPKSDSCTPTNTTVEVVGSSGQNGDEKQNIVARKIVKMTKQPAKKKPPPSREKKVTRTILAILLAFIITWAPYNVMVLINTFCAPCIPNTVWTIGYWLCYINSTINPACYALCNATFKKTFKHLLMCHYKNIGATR

[21] = target: Melatonin receptor type 1A (Homo sapiens) (UniProt P48039); assay: Inhibition of Melatonin MT1 at 10 µM in the Eurofins-Panlabs radioligand binding assay (Eurofins_assay_251600); design: ligand concentration 0.05 nM; settings: Compound concentration 10.0 uM
[22] = target: L-type calcium channel, dihydropyridine site (Cav1.2 alpha-1C) (Homo sapiens, UniProt Q13936); assay: Inhibition of Calcium Channel L-Type, Dihydropyridine at 10 µM in the Eurofins-Panlabs radioligand binding assay (Eurofins_assay_214600); design: ligand concentration 0.1 nM, non-specific ligand with concentration 1 µM Nitrendipine, incubation time 90 min, incubation temperature 25 °C; settings: Wistar, rat, rat cerebral cortex preparation, probe [3H] Nitrendipine; compound concentration 10 uM; target entry is the homologue from another species
[23] = target: 5-hydroxytryptamine receptor 2B (Homo sapiens) (UniProt P41595); settings: Compound concentration 10.0 uM
[24] = target: Cannabinoid receptor 1 (Homo sapiens) (UniProt P21554); settings: Compound concentration 10.0 uM
[25] = target: Muscarinic acetylcholine receptor M3 (Homo sapiens) (UniProt P20309); settings: Compound concentration 10.0 uM
[26] = target: Alpha-1A adrenergic receptor (Homo sapiens) (UniProt P35348); settings: Rattus norvegicus; Compound concentration 10.0 uM
[27] = target: 5-hydroxytryptamine receptor 3A (Homo sapiens) (UniProt P46098); settings: Compound concentration 10.0 uM
[28] = species: Rattus norvegicus; assay: Testosterone Eurofins-Panlabs radioligand binding assay; design: ligand concentration 1.5 nM; settings: Compound concentration 10.0 uM
[29] = target: D(2) dopamine receptor (Homo sapiens) (UniProt P14416); settings: Compound concentration 10.0 uM
[30] = target: T1, GABA-A receptor; anion channel (Rattus norvegicus); settings: Compound concentration 10.0 uM

Leukocyte tyrosine kinase receptor (Homo sapiens), sequence (P29376 whole entry): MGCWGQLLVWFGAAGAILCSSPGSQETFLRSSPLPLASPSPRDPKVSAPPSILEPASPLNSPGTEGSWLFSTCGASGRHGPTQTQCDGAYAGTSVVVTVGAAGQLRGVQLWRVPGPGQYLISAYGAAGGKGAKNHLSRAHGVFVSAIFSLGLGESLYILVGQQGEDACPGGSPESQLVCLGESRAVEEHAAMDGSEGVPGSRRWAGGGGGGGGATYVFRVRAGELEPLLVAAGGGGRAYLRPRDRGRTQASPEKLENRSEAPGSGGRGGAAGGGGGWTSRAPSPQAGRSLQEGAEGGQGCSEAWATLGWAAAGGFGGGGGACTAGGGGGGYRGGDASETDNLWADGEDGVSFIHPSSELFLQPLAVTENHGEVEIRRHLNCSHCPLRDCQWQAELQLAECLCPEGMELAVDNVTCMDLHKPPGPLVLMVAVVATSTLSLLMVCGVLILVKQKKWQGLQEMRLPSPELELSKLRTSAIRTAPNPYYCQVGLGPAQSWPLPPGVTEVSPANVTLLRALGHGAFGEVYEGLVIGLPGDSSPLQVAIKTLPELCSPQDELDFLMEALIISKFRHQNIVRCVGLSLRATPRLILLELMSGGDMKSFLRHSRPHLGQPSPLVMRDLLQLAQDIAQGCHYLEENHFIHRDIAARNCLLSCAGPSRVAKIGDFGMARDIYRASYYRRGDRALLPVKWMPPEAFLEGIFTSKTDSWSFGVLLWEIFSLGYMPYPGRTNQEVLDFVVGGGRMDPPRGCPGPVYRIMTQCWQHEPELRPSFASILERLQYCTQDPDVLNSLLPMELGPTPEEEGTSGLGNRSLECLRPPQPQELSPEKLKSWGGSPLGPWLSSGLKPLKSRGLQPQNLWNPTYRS
Ribosomal protein S6 kinase alpha-6 (Homo sapiens), sequence (Q9UK32 whole entry): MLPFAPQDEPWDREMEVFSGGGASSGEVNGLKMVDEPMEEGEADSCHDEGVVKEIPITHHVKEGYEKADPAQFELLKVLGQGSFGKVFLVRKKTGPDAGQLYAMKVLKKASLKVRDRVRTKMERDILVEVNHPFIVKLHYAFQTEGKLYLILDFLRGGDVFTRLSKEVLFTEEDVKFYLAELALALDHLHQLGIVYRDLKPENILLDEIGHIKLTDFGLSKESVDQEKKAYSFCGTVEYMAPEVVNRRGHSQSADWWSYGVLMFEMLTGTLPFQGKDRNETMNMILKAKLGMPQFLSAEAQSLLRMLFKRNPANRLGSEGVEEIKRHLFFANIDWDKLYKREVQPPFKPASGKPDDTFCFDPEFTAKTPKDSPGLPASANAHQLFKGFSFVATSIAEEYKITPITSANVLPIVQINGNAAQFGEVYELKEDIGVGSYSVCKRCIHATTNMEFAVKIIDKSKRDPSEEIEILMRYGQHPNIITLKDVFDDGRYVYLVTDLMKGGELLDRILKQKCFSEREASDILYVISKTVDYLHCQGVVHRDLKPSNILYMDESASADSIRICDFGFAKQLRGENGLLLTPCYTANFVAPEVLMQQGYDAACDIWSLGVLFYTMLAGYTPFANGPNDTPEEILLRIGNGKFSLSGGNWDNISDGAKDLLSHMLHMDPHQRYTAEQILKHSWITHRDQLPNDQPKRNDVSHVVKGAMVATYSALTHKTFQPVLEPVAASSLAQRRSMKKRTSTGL
1-phosphatidylinositol 3-phosphate 5-kinase (Homo sapiens), sequence (Q9Y2I7 whole entry, canonical isoform): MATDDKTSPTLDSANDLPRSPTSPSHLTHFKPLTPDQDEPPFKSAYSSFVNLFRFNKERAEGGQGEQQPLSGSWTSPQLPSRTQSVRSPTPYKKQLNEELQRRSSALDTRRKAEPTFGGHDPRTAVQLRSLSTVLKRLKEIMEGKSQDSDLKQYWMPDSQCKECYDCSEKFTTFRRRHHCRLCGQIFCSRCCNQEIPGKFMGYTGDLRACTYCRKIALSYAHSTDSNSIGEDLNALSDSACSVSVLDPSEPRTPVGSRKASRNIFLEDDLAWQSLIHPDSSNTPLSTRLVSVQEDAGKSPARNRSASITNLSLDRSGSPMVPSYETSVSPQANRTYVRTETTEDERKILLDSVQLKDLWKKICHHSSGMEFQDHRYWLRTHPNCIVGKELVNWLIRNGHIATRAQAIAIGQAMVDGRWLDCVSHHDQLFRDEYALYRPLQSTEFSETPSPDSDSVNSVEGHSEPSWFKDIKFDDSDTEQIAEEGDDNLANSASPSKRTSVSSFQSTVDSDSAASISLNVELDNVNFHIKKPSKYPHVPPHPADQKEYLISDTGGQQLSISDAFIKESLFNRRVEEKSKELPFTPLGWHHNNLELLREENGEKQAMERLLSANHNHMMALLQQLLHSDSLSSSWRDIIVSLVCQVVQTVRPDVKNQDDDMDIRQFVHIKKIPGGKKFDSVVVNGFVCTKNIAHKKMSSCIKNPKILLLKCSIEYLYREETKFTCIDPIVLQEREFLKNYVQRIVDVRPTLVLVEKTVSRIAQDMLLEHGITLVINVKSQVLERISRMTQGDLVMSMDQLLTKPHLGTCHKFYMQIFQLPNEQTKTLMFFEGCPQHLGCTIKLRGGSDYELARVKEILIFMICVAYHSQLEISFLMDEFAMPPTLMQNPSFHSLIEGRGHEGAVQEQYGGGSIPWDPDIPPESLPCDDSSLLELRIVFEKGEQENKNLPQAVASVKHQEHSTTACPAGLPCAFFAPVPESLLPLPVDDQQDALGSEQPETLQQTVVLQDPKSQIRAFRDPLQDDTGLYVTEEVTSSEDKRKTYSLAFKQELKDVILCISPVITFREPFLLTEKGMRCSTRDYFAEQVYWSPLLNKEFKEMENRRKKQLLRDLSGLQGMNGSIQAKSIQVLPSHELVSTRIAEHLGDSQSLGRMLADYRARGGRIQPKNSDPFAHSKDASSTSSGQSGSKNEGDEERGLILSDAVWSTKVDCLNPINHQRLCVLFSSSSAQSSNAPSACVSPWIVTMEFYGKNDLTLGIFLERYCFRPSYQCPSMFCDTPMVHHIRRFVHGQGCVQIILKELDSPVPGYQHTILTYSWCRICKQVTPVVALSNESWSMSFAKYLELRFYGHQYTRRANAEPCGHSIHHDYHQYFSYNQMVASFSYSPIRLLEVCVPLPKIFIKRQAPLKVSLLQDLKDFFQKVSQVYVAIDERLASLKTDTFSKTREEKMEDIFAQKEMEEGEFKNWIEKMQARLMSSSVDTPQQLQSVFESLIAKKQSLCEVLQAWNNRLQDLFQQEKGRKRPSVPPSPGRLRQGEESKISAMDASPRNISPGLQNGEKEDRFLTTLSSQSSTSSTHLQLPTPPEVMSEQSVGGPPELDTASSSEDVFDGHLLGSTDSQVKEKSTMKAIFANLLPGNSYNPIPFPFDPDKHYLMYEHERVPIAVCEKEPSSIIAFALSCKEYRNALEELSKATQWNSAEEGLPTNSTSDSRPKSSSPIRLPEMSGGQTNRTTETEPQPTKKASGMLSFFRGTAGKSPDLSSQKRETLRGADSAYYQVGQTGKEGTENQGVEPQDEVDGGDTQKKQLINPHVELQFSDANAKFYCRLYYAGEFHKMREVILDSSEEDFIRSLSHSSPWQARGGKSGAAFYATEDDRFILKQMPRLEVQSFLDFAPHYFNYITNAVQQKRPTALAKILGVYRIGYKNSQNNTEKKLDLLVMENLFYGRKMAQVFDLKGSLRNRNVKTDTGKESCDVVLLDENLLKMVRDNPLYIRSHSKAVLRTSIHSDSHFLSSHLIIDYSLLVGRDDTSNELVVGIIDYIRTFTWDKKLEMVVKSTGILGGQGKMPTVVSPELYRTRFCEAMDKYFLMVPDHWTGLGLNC
Phosphatidylinositol 4,5-bisphosphate 3-kinase catalytic subunit beta isoform (Homo sapiens), sequence (P42338 whole entry, looked up, canonical isoform): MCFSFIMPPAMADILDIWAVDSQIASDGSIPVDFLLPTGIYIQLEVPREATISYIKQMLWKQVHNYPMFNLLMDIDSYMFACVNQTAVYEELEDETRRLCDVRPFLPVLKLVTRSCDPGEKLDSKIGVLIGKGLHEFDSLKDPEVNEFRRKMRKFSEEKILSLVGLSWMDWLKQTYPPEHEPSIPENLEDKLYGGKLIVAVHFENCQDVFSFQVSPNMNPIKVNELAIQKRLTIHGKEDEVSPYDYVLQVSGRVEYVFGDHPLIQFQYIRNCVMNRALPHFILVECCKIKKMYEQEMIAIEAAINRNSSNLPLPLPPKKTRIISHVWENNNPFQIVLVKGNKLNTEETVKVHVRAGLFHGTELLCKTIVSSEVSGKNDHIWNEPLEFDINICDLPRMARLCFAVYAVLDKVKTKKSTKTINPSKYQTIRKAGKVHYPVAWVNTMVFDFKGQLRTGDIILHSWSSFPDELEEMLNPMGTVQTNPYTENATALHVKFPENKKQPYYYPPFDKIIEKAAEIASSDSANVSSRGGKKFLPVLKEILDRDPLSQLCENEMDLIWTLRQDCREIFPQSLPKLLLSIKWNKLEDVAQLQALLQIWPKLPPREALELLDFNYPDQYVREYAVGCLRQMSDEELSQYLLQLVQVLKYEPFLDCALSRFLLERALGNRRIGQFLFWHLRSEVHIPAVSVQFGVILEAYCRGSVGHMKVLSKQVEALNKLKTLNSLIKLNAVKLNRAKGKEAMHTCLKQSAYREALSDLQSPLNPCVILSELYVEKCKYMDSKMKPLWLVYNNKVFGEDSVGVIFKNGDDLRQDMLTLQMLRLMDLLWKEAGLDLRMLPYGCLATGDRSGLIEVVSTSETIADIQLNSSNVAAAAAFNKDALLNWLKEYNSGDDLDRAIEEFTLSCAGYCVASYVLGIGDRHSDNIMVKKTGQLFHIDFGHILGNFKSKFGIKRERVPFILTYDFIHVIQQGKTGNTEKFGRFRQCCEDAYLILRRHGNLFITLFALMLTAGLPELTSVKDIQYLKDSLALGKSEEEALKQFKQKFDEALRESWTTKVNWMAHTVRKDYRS
Melatonin receptor type 1A (Homo sapiens), sequence (P48039 whole entry): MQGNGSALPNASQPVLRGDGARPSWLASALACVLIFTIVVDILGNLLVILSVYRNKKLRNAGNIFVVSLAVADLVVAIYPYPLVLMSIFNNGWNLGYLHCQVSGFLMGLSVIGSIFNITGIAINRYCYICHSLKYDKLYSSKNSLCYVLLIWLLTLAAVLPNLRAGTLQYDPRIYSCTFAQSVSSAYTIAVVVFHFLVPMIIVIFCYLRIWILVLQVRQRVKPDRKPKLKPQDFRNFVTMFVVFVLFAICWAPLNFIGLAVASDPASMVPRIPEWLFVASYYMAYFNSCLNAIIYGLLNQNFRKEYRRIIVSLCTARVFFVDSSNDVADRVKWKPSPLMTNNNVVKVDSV

O=C(O)[C@@H]1[C@@H](Cn2nnc3ccccc3c2=O)CC[C@H]1C(=O)c1ccc(OCCC2CCOCC2)cc1 [BAY-694]
inactive: residual activity [1] 87% | residual activity [2] 66% | residual activity [3] 100% | residual activity [4] 100%

O=C(O)[C@H]1[C@H](Cn2nnc3ccccc3c2=O)CC[C@@H]1C(=O)c1ccc(OCCC2CCOCC2)cc1 [BAY-7598]
0% (not active): inhibition at 90 min, 10 µM [22]
-9% (not active): inhibition at 3 h, 10 µM [13]
inactive: inhibition [5] 9% | inhibition [6] 10% | inhibition [7] 19% | residual activity [1] 72% | inhibition [8] 7% | inhibition [9] 1% | inhibition [10] 2% | residual activity [2] 80% | inhibition [11] 6% | inhibition [12] -1% | inhibition [14] 9% | inhibition [15] 3% | residual activity [3] 86% | inhibition [16] 1% | inhibition [17] 1% | inhibition [18] 5% | inhibition [19] 0% | inhibition [20] 0% | inhibition [21] 2% | inhibition [23] 4% | inhibition [24] 17% | inhibition [25] 2% | inhibition [26] 1% | inhibition [27] -7.84% | inhibition [28] 12% | residual activity [4] 100% | inhibition [29] 2% | inhibition [30] -2%
